Data on 16 compounds can be found in patent US8859543B2, “Imidazo[1,2-a]pyrazine derivatives and their use for the prevention or treatment of neurological, psychiatric and metabolic disorders and diseases” (Janssen Pharmaceutica NV, priority 2010, dated 2014).

Experiment [1] has as its system PCP-induced hyperlocomotion. Put plainly: PCP-induced hyperlocomotion in rats (PCP). It is filed as in vivo. Particulars: Rattus norvegicus.
In experiment [2] the target is T1, Rat recombinant PDE10A (rPDE10A2) (Rattus norvegicus, UniProt Q9QYJ6).
T1 construct: made in house; host or cells: Sf9 insect cells, baculovirus
T1 sequence (Q9QYJ6 1-794): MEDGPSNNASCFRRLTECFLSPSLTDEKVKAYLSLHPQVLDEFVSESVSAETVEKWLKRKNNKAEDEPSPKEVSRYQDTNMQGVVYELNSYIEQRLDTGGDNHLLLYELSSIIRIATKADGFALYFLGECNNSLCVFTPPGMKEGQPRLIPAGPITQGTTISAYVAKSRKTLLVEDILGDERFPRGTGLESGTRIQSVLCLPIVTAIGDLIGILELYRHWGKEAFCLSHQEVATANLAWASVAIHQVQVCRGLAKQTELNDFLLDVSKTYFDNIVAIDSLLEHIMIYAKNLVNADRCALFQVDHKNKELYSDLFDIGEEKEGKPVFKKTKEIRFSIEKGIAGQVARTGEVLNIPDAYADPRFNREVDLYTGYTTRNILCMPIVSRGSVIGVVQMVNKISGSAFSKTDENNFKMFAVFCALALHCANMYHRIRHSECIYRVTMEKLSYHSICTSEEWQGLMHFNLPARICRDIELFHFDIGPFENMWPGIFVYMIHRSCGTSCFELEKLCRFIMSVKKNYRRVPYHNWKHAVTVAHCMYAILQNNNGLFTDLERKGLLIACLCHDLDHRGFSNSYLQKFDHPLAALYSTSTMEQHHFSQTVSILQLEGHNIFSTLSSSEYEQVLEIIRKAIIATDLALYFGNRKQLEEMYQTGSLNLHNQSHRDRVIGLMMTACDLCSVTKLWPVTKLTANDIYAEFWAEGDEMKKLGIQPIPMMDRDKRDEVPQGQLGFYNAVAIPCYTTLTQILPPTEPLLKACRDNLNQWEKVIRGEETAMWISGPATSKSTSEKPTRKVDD
Put plainly: In vitro assay PDE10A (SPA, 3H-cAMP). The experiment is classed as biochemical. Particulars: pIC50 corresponds to the -log IC50 expressed in mol/L; for IC50: read-out: PDE10A2 pIC50 (converted). The method, boiled down:
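Purified Sf9-expressed rat PDE10A2 incubated 60 min at RT with 60 nM cAMP plus 0.008 μCi 3H-cAMP in 50 mM Tris pH 7.8, 8.3 mM MgCl2, 1.7 mM EGTA, 1% DMSO final. Product quantified by scintillation proximity counting against no-enzyme blanks and DMSO controls.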

For experiment [3], the system named is apomorphine-induced stereotypy. Put plainly: Apomorphine-induced stereotypy in rats (APO). It is filed as in vivo. The note with it: Rattus norvegicus. On the procedure: Apomorphine-Induced Stereotypy in Rats (APO)
Apomorphine (1.0 mg/kg, i.v.)-induced stereotypy (compulsive sniffing, licking, chewing) was scored every 5 min. over the first hour after injection of apomorphine, following a 1 hour interval pre-treatment with the test compound. The score system was: (3) pronounced, (2) moderate, (1) slight, and (O) absent.

Experiment [4] concerns the target T2, PDE10 (Rattus norvegicus, UniProt Q9QYJ6).
T2 construct: from tissue; host or cells: rat brain sections, striatum (ex vivo autoradiography after in vivo dosing)
T2 sequence (Q9QYJ6 1-794): T1 sequence (Q9QYJ6 1-794)
Description: PDE10 occupancy ([3H]-MP-10, striatum). It is filed as in vivo. Particulars: for ED50: rat, sc, occupancy, read-out: Occ. ED50. On the procedure: Dose-response or single dose experiments were performed to measure PDE10 occupancy 1 hour after subcutaneous (s.c.) or oral (p.o.) administration. Male Wistar rats (200 g) were treated by s.c. or p.o. administration of various PDE10 inhibitors. The PDE10 radioligand [^3H]-MP-10 (10 μCi/animal) was injected intravenously (i.v.) 30 minutes before sacrifice. Brains were immediately removed from the skull and rapidly frozen. Twenty μm-thick brain sections were cut using a cryostat-microtome, thaw-mounted on microscope slides and loaded in a β-imager to quantify PDE10 occupancy in the striatum.

The mark [5] stands for this setting: po, * compound was not soluble and was tested orally as a suspension, read-out: APO ED50.
Where [6] appears, read: not active at 2.5 or at 10 mg/kg, not further tested, read-out: APO ED50 (not active at threshold dose).

By ED50 is commonly meant the dose at which the effect has come halfway, by size or by number of responders.

Structures are written as SMILES. Where two headings read alike, the source gives them in different places. A value given as a limit tells only on which side of the number the result lay.

Take `Cc1nc2c(N3CCOCC3)nccn2c1-c1cnn(CC2CCCCO2)c1` (single isomer, unassigned) [compound 70]: the figures for the ED50 in experiment [1] and in experiment [3] (read-out: APO ED50) were 3.2 mg/kg and 5 mg/kg, respectively. Moreover, the IC50 in experiment [2] is 91.2 nM.

Regarding `COC(C)(C)c1ccc(-c2c(C)nc3c(N4CCOCC4)nccn23)cn1` [compound 30, 3-[6-(1-Methoxy-1-methyl-ethyl)-pyridin-3-yl]-2-methyl-8-morpholin-4-yl-imidazo[1,2-a]pyrazine], the ED50 in experiment [4] (administered s.c.) worked out at 3.4 mg/kg; in experiment [3] (read-out: APO ED50), 1.2 mg/kg. Moreover, the IC50 in experiment [2] was 107 nM.

Consider `COCCn1cc(-c2c(C)nc3c(-c4ccncc4)nccn23)cn1` [compound 34, 3-[1-(2-Methoxy-ethyl)-1H-pyrazol-4-yl]-2-methyl-8-pyridin-4-yl-imidazo[1,2-a]pyrazine], for which the “% Occ. at 10 mg/kg” value in experiment [4] (administered s.c.) worked out at 52%. Moreover, in experiment [2], the IC50 was 263 nM. Further, in experiment [3] (setting [5]), the ED50 is 1.2 mg/kg.

Regarding `FC(F)(F)Cn1cc(-c2c(C3CC3)nc3c(-c4ccncc4)nccn23)cn1` [compound 45], in experiment [4] (administered p.o. (a)), the “% Occ. at 10 mg/kg” value is 53^a %. Besides, in experiment [2], the IC50 is 20 nM. Moreover, the ED50 in experiment [3] (setting [5]) was 3.1 mg/kg.

Regarding `FC(F)(F)Cn1cc(-c2c(C3CC3)nc3c(N4CCOCC4)nccn23)cn1` [compound 46], the “% Occ. at 10 mg/kg” value in experiment [4] (administered s.c.) came to 41%. The IC50 in experiment [2] is 25.1 nM. Moreover, in experiment [3] (setting [5]), the ED50 worked out at 5 mg/kg.

On to `COC(C)(C)Cn1cc(-c2c(C3CC3)nc3c(N4CCOCC4)nccn23)cn1` [compound 48], for which, in experiment [4] (administered s.c.), the “% Occ. at 10 mg/kg” value stood at 53%. The IC50 in experiment [2] was 33.1 nM. In addition, the ED50 in experiment [3] (read-out: APO ED50) was 3.1 mg/kg.

For `COC(C)(C)Cn1cc(-c2c(C3CC3)nc3c(-c4ccncc4)nccn23)cn1` [compound 50], in experiment [4] (administered s.c.), the “% Occ. at 10 mg/kg” value came to 72%. Moreover, in experiment [2], the IC50 is 47.9 nM. The ED50 in experiment [3] (read-out: APO ED50) stood at 5 mg/kg.

As to `COCCn1cc(-c2c(C3CC3)nc3c(-c4ccncc4)nccn23)cn1` [compound 51], in experiment [4] (administered s.c.), the “% Occ. at 10 mg/kg” value is on record as 61%. Moreover, in experiment [2], the IC50 is 50.1 nM. Moreover, the ED50 in experiment [3] (read-out: APO ED50) was determined as 1.2 mg/kg.

Take `Cc1nc2c(N3CCOCC3)nccn2c1-c1cnn(CC2CC2(F)F)c1` (stereo not drawn) [compound 52]: the ED50 in experiment [4] (administered s.c.) was 5.5 mg/kg; in experiment [1] it was no more than 10 mg/kg; in experiment [3] (read-out: APO ED50), 3.1 mg/kg. The IC50 in experiment [2] is 52.5 nM.

Take `COCCn1cc(-c2c(C3CC3)nc3c(N4CCOCC4)nccn23)cn1` [compound 53]: the ED50 was no more than 40 mg/kg in experiment [1] and 5 mg/kg in experiment [3] (read-out: APO ED50). Besides, the “PDE10A2 pIC50” value in experiment [2] was 7.27.

As for `Cc1nc2c(-c3ccncc3)nccn2c1-c1cnn(CC(F)(F)F)c1` [compound 67], the “% Occ. at 10 mg/kg” value in experiment [4] (administered s.c.) turned out to be 55%. For the same compound, the IC50 in experiment [2] was 85.1 nM. In experiment [3] (setting [5]), the ED50 is 3.1 mg/kg.

With `Cc1nc2c(-c3ccncc3)nccn2c1-c1cnn(CC(C)C)c1` [compound 69], the “% Occ. at 10 mg/kg” value in experiment [4] (administered s.c.) is given as 67%. Moreover, the results for the ED50 in experiment [1] and in experiment [3] (read-out: APO ED50) were 2 mg/kg and 5 mg/kg, respectively. In experiment [2], the IC50 was 89.1 nM.

Turning to `COC(C)(C)Cn1cc(-c2c(C)nc3c(N4CCOCC4)nccn23)cn1` [compound 72], the ED50 in experiment [4] (administered s.c.) was found to be 6.4 mg/kg; in experiment [1], 2 mg/kg; in experiment [3] (read-out: APO ED50), 1.2 mg/kg. Further, the IC50 in experiment [2] is 95.5 nM.

For `Cc1nc2c(N3CCOCC3)nccn2c1-c1ccnc(OC(C)C)c1` [compound 113], the “% Occ. at 10 mg/kg” value in experiment [4] (administered s.c.) was 11%. Besides, the IC50 in experiment [2] is 251 nM. Besides, in experiment [3] (setting [6]), the ED50 was greater than 2.5 mg/kg.

Take `COCCn1cc(-c2c(C(F)(F)F)nc3c(N4CCOCC4)nccn23)cn1` [compound 118]: the “% Occ. at 10 mg/kg” value in experiment [4] (administered s.c.) was 0%. For the same compound, the “PDE10A2 pIC50” value in experiment [2] came out at 6.51. Besides, the ED50 in experiment [3] (setting [6]) was greater than 2.5 mg/kg.

Turning to `COCCn1cc(-c2c(C)nc3c(N4CCCC4)nccn23)cn1` [compound 130], the “% Occ. at 10 mg/kg” value in experiment [4] (administered s.c.) is on record as 10%. Also, the “PDE10A2 pIC50” value in experiment [2] is recorded as 6.3. Also, in experiment [3] (setting [6]), the ED50 is greater than 2.5 mg/kg.
